According to patent publication US20130210034A1, “COMPLEX PHOSPHOPROTEIN ACTIVATION PROFILES” (BECKMAN COULTER, INC., priority 2005, published 2013):
Several values for one entry are separate records, joined by “and”; a condition that tells them apart may be missing. Equal values may be shown once.

Tests used:
Type in all cases: cell-based, human
pSTAT5 [1] = assay: Phosphoprotein kinetic profiles in bone marrow samples from healthy donors
Experimental: (§1) Phosphoprotein kinetic profiles were analyzed in bone marrow aspiration samples from nine healthy, adult donors (i.e., normal bone marrow or NBM) and from five AML patients. Samples from healthy donors included 5 males and 4 females, ranging in age from 26 to 49 years. Approximately 10 to 20 mL of bone marrow (BM) samples were collected from the posterior iliac crest of the volunteers using IRB approved protocols. The BM samples were filtered using a 40 μm Nylon cell strainer to remove marrow particles and the white blood cell concentration determined using a blood analyzer. […] The samples were immediately used for subsequent experimentation.
(§2) To assess the signal transduction response after growth factor simulation, 100 to 200 μL of processed samples including about 2×10^6 WBC/100 μL were added to tubes and incubated at 37° C. for 30 minutes. For inhibition experiments, cells were incubated with 100 μM U0126, 1 μg/mL rapamycin, or both for at least 20 minutes prior to cytokine addition and in all cases for 30 min prior to formaldehyde addition. […] After stimulation the cells were immediately fixed by the addition of formaldehyde to a final concentration of 4% v/v and incubated for 10 minutes at room temperature. Following fixation, red blood cells were lysed by the addition of TRITON-X/PBS solution (0.1% v/v final concentration Triton X-100) supplemented with a 1 x phosphatase inhibitor cocktail (PIC; final concentrations: 0.2 mM sodium orthovanadate, 2 mM sodium pyrophosphate decahydrate, 2 mM [3-glycerophosphate, and 10 mM sodium fluoride) and incubation at 37° C. for 20 minutes. The incubated solution was chilled by the addition of ice-cold Wash Buffer (final concentration 1×PBS and either 4% bovine serum albumin (BSA) or 4% heat-inactivated fetal bovine serum (FBS), supplemented with 1×PIC), and the samples were centrifuged at 300 g for 6 minutes at 4° C.). If the lysis was incomplete, samples were retreated with 0.1% Triton X-100 at 37° C. for 10 to 20 minutes. After removal of the supernatant, cells were washed twice in ice-cold Wash Buffer supplemented with 1×PIC and permeabilized by the addition of pre-chilled 80% methanol while simultaneously vortexing the tube and incubated on ice for 10 minutes. Methanol was removed by centrifugation, the pellet was washed with ice-cold 1×PBS, and non-specific binding was blocked by the addition of ice-cold Wash Buffer supplemented with 1×PIC and incubation at 4° C. for a minimum of 30 minutes.
(§3) To stain cells with fluorescent conjugated monoclonal antibodies, the incubated solution was centrifuged to remove the supernatant and the pellet was incubated for 60 minutes at 4° C. with an antibody staining solution including 0.25 μg to 0.50 μg of pS6-Pacific Blue, pERK-ALEXA 488, pSTAT5-ALEXA 647, CD34-PE, CD45-PerCP, and CD117-PC7. Samples were washed three times with ice-cold Wash Buffer supplemented with 1×PIC, resuspended in 0.5 mL ice-cold Wash Buffer supplemented with 1×PIC including 0.5 μg/mL DAPI, and analyzed by flow cytometryusing a BD LSR II Flow Cytometer, equipped with a High Throughput Sampler (HTS).
(§4) First, doublets, aggregates, and debris were excluded by gating on single cell events in the SSC-Area versus SSC-Height histogram. Then, in events passing through this gate, debris near the origin of the FSC-Area versus SSC-Area plot (gray in FIG. 4A) was excluded by drawing a gate around an area encompassing, primarily, lymphocytes, monocytes, and granulocytes (LMG, black in FIG. 4A). Next, in cells passing through the LMG gate, the blast region (circle in FIG. 4B) was identified in the CD45 versus SSC-Area histogram (FIG. 4B). From this blast population, CD34+, CD117+ cells were identified in the CD34 versus CD117 plot (boxed area in FIG. 4C).

pERK [2] = assay: as above
Experimental: as §1, §2, §3, §4

pS6 [3] = assay: as above
Experimental: as §1, §2, §3, §4

pSTAT5 [4] = assay: Phosphoprotein kinetic profiles in CD34+, CD117+ cells of AML bone marrow samples; conditions: AML1 sample (Example 6)
Experimental: as §2, §3
(§5) First, doublets, aggregates, and debris were excluded by gating on single cell events in the SSC-Area versus SSC-Height histogram. Then, in events passing through this gate, debris near the origin of the FSC-Area versus SSC-Area plot (gray in FIG. 4A) was excluded by drawing a gate around an area encompassing, primarily, lymphocytes, monocytes, and granulocytes (LMG, black in FIG. 4A). Next, in cells passing through the LMG gate, the blast region (circle in FIG. 4B) was identified in the CD45 versus SSC-Area histogram (FIG. 4B). From this blast population, CD34+, CD117+ cells were identified in the CD34 versus CD117 plot (boxed area in FIG. 4C). Finally, these cells were further analyzed for cytokine-mediated increases in phosphorylation by constructing gates in the single parameter histograms (for positively and negatively stained events, i.e., for the phosphorylated and non-phosphorylated forms, respectively, of each protein) for pS6 (FIGS. 4D and 4G), pERK (FIGS. 4E and 4H), and pSTAT5 (FIGS. 4F and 4I). […] The dotted lines in each of these histograms represent unstimulated cells at t=0 min. FCS files were processed with WinList 6.0 3D (Verity Software House).

pERK [5] = assay: as above; conditions: CD34^+, CD117^+ cells, AML1 sample (Example 6)
Experimental: as §2, §3, §5

pS6 [6] = assay: as above; conditions: CD34^+, CD117^+ cells, AML1 sample (Example 6)
Experimental: as §2, §3, §5

[7] = CD34^+, CD117^+ cells, healthy donor samples
[8] = monocytes vs CD34^+, CD117^+ cells
[9] = monocytes, healthy donor bone marrow

Q: With “Granulocyte-Macrophage Colony-Stimulating Factor [GM-CSF]” as the substance, how does the “pSTAT5 RI (response interval)” value (pSTAT5 [1]; [7]) read?
A: >60 min

Q: And the “pSTAT5 maximal fold stimulation in monocytes, times the level observed in CD34^+, CD117^+ cells” value (pSTAT5 [1]; [8])?
A: about 500 times

Q: And the “pSTAT5 maximal fold stimulation” value (pSTAT5 [1]; [9])?
A: approximately 10,000

Q: What about the “pERK Amp (peak amplitude of fold stimulation)” value (pERK [2]; [7]) of the same substance?
A: 4.5 and 4.5 ± 0.6

Q: What about the “pERK RI (response interval)” value (pERK [2]; [7]) of the same substance?
A: Variable

Q: What about the “pERK maximal fold stimulation” value (pERK [2]; [9]) of the same substance?
A: about 100

Q: What about the “pS6 Amp (peak amplitude of fold stimulation)” value (pS6 [3]; [7]) of the same substance?
A: 1.8 and 1.8 ± 0.3

Q: And the “pS6 RI (response interval)” value (pS6 [3]; [7])?
A: Variable

Q: And the “pS6 maximal fold stimulation in monocytes, times the level observed in CD34^+, CD117^+ cells” value (pS6 [3]; [8])?
A: about 100 times

Q: What about the “pS6 maximal fold stimulation” value (pS6 [3]; [9]) of the same substance?
A: about 500

Q: And the “pSTAT5 Amp (peak amplitude of fold stimulation)” value (pSTAT5 [4])?
A: 110

Q: And the “pSTAT5 RI (response interval)” value (pSTAT5 [4])?
A: >60 min

Q: And the “pERK Amp (peak amplitude of fold stimulation)” value (pERK [5])?
A: 6

Q: And the “pERK RI (response interval)” value (pERK [5])?
A: 10 min

Q: And the “pS6 Amp (peak amplitude of fold stimulation)” value (pS6 [6])?
A: 1

Q: What about the “pS6 RI (response interval)” value (pS6 [6]) of the same substance?
A: 20 min
